Test results published in paper PMC3694633, “Functional evolution of scorpion venom peptides with an inhibitor cystine knot fold” (Bioscience Reports, 2013).
Bridge positions count the residues as written; N and C are the ends. Ends that are not written are not given here. Peptide text beside a SMILES is read from it.

Assays:
mice = details: intracerebroventricular inoculation; cited from earlier work
Procedure: It has been reported that the lethality of MCa on mice after intracerebroventricular inoculation (LD50=20 μg/mouse); however, the molecular basis remains unsolved so far.

rKv1.1 = target: T1, rKv1.1 (Rattus norvegicus, UniProt P10499); experiment: two-electrode voltage-clamp, rKv1.1 in Xenopus oocytes; format: cell-based
T1 construct: expressed in transfected cells; host or cells: Xenopus oocytes injected with cRNA (clone in pGEM, T7 promoter)
T1 sequence (P10499 whole entry): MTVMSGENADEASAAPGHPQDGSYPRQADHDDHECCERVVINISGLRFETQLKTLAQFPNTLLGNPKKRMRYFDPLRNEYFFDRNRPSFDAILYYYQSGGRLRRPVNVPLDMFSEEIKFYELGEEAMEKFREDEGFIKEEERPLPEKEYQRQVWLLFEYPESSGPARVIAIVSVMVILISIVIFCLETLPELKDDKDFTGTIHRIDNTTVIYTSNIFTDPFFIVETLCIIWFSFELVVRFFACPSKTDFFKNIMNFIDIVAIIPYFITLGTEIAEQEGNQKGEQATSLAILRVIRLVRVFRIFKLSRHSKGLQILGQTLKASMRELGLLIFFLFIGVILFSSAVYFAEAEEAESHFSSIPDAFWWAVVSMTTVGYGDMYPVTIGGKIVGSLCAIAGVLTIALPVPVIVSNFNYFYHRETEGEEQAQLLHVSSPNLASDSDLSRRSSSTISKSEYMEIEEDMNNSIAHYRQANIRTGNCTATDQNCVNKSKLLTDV
Procedure: (§1) For the expression of Kv channels (rKv1.1–rKv1.4 and Shaker IR) and Nav channels (rNav1.1, rNav1.2, rNav1.4, rNav1.5 and mNav1.6) in Xenopus oocytes, the linearized plasmids were transcribed with the T7 or SP6 mMESSAGE-mMACHINE transcription kits (Supplementary Table S2, available at http://www.bioscirep.org/bsr/033/bsr033e047add.htm). Oocytes were digested for 1–2 h at room temperature in Ca^2+-free ND96 (in mM: NaCl, 96; KCl, 2; […]; MgCl2, 2 and Hepes, 5, adjusted to pH 7.4 with NaOH) containing 0.5 mg/ml collagenase (type I, sigma). Oocytes were injected with 0.5 ng of cRNA by NANOLITER 2000 (World Precision Instruments Inc.). The oocytes were incubated in ND96 solution supplemented with 50 mg/l gentamycin sulfate at 18°C.
(§2) Ion channel currents were recorded 1–3 days after injection with Oocyte Clamp OC-725C (Warner Instument Corp.) and Digidata 1440A (Axon CNS, Molecular Devices) controlled by pCLAMP10 software (Axon). […] All data were recorded from at least three independent oocytes (n≥3) and are presented as mean±S.E.. […] Data were analysed by pCLAMP 10 (Molecular Devices) and SigmaPlot 10.0 (Systat Software).

[1] = target: T2, Drosophila Shaker channel (Shaker IR) (Drosophila melanogaster, UniProt P08510, DEL6-46); experiment: two-electrode voltage-clamp, Shaker channel in Xenopus oocytes; format: cell-based; details: for activity on the Shaker channel after C-terminal modification: Figure 6 modified peptides at 10 μM, n=3, GP deletion: results not shown
T2 construct: expressed in transfected cells; host or cells: Xenopus oocytes injected with cRNA (clone in pBluescript, T7 promoter)
T2 sequence (P08510 with tags, fused parts or gaps DEL6-46): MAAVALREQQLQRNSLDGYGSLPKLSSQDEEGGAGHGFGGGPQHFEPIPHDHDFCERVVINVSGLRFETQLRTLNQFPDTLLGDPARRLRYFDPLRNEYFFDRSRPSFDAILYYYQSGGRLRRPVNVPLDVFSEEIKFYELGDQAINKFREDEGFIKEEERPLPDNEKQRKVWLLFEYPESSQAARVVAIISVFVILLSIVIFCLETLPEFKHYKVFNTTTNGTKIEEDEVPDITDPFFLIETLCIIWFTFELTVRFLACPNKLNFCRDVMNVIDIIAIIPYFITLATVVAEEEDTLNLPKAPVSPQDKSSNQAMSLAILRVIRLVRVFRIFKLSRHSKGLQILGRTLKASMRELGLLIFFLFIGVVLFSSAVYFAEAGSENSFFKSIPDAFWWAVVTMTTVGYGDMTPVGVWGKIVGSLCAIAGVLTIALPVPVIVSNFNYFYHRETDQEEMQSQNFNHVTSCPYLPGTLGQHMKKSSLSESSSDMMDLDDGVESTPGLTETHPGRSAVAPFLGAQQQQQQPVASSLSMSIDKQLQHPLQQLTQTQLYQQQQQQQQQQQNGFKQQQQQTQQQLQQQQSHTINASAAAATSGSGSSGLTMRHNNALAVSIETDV
Procedure: as §1
Ion channel currents were recorded 1–3 days after injection with Oocyte Clamp OC-725C (Warner Instument Corp.) and Digidata 1440A (Axon CNS, Molecular Devices) controlled by pCLAMP10 software (Axon). Pipettes were pulled by P-97 FLAMING/BROWN Micropipette Puller (Sutter Instrument Co.) with resistance of 0.1–1.0 MΩ when filled with 3 M KCl. rKv1.1–rKv1.4 and Shaker currents were evoked by 250 ms depolarization to 0 mV followed by a 250 ms pulse to −50 mV, from a holding potential of −90 mV. rNav1.1, 1.2, 1.4, 1.5 and mNav1.6 currents were evoked by 100 ms depolarization to −10 mV from a holding potential of −90 mV. All data were recorded from at least three independent oocytes (n≥3) and are presented as mean±S.E.. Leak subtraction was carried out with a P/4 protocol. Data were analysed by pCLAMP 10 (Molecular Devices) and SigmaPlot 10.0 (Systat Software).

[2] = stability to non-enzymatic hydrolysis during oxidative refolding; format: physicochemical; details: 0.1 M Tris–HCl pH 8.0, 0.5 mM peptide, 25°C, 48 h; for chemical stability (non-enzymatic hydrolysis, Val35–Gly36 peptide bond): RP-HPLC / MALDI-TOF-MS
Procedure: λ-MK1 and λ-MK1a in their reduced form were chemically synthesized by ChinaPeptides Co., Ltd. and Scilight-Peptide Inc., respectively. For oxidative refolding, peptide samples were dissolved in 0.1 M Tris–HCl buffer (pH 8.0) to a final concentration of 0.5 mM and incubated at 25°C for 48 h. Peptides were purified by RP-HPLC (reversed-phase HPLC). Purity and molecular masses of peptides were determined by MALDI-TOF-MS on a Kratos PC Axima CFR plus (Shimadzu Co. LTD).

[3] = tested on: sarcoplasmic reticulum Ca^2+ release channels/ryanodine receptors of skeletal and cardiac muscles; details: cited from earlier work
Source text: The ICK fold is an exceptionally stable structural motif comprising an embedded ring formed by two disulfide bridges (Cys^1–Cys^4 and Cys^2–Cys^5) and their connecting backbone segments, which is threaded by a third disulfide bridge (Cys^3–Cys^6).

Na^+ channel = tested on: Na^+ channel; design: method as in PMID 21665957; details: cited from earlier work
[4] = tested on: apamin-sensitive SKCa channels; details: cited from earlier work
Source text: This is further strengthened by the evolutionary conservation of these two residues in all the members of λ-KTx subgroup. To further investigate the functional significance of this region, we carried out C-terminal amidation, a common post-translational modification for many toxins from venoms of scorpions, spiders and cone snails. The amidated peptide (named λ-MK1a) was oxi ...

rKv1.4 = experiment: two-electrode voltage-clamp, rKv1.4 in Xenopus oocytes; format: cell-based; details: 10 μM, 250 ms depolarization to 0 mV from −90 mV, mean±S.E. (n=3)
Procedure: as §1, §2

rKv1.3 = experiment: two-electrode voltage-clamp, rKv1.3 in Xenopus oocytes; format: cell-based; details: 10 μM, 250 ms depolarization to 0 mV from −90 mV, mean±S.E. (n=3)
Procedure: as §1, §2

rKv1.2 = experiment: two-electrode voltage-clamp, rKv1.2 in Xenopus oocytes; format: cell-based; details: 10 μM, 250 ms depolarization to 0 mV from −90 mV, mean±S.E. (n=3)
Procedure: as §1, §2

[5] = target: Drosophila Shaker K+ channel (Shaker IR) (Drosophila) (UniProt P08510)
Sequence of Drosophila Shaker K+ channel (Shaker IR) (Drosophila) (P08510 whole entry): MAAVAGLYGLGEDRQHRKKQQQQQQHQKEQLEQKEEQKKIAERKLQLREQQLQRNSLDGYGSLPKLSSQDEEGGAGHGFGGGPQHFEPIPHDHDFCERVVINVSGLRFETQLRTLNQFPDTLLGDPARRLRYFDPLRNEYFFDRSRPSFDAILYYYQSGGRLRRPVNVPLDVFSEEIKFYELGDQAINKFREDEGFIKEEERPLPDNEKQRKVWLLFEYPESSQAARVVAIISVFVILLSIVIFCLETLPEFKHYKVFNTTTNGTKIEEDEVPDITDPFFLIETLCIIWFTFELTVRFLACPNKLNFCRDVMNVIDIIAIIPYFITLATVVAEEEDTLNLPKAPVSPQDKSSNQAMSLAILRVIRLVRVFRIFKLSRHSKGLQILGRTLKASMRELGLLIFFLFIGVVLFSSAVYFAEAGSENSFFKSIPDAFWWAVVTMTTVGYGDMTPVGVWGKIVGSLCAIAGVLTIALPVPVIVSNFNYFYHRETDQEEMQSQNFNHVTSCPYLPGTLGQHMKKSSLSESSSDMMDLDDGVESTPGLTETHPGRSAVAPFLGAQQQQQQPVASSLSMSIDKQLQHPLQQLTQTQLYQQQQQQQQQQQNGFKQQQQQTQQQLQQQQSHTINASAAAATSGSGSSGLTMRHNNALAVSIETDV

[6] = target: rKv1.3 (not stated (printed rKv1.1-rKv1.4, called mammalian; r read as rat)) (UniProt P15384)
Sequence of rKv1.3 (not stated (printed rKv1.1-rKv1.4, called mammalian; r read as rat)) (P15384 whole entry): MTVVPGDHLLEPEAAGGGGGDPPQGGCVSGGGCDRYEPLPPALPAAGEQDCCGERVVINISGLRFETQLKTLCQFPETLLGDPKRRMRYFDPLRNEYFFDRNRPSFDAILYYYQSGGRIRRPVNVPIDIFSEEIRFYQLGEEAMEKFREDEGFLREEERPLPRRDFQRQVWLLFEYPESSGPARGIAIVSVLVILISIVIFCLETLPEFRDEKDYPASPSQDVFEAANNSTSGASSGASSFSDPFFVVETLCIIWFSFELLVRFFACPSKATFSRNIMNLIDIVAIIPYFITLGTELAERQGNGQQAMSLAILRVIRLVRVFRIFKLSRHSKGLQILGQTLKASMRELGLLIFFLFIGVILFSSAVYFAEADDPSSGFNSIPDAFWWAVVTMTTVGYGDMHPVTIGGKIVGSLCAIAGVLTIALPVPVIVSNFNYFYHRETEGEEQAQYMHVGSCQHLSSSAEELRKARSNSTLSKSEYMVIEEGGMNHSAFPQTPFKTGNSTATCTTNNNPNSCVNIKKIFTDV

[7] = target: rKv1.1 (not stated (printed rKv1.1, called mammalian; r read as rat)) (UniProt P10499)
Sequence of rKv1.1 (not stated (printed rKv1.1, called mammalian; r read as rat)) (P10499 whole entry): as the sequence (P10499 whole entry) above

[8] = target: rKv1.2 (not stated (printed rKv1.1-rKv1.4, called mammalian; r read as rat)) (UniProt P63142)
Sequence of rKv1.2 (not stated (printed rKv1.1-rKv1.4, called mammalian; r read as rat)) (P63142 whole entry): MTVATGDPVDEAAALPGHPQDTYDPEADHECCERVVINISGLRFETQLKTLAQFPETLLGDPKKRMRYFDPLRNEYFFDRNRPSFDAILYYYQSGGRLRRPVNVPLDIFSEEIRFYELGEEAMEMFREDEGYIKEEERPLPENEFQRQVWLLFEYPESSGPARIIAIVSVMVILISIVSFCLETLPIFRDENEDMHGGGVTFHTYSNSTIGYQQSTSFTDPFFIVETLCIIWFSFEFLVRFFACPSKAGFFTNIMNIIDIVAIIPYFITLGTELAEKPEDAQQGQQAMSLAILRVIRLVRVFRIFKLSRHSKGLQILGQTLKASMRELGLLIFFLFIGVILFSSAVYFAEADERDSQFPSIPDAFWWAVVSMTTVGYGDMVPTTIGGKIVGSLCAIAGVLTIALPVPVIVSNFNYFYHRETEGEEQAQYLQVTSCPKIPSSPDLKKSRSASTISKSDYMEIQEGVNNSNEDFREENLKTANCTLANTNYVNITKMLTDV

[9] = target: rKv1.4 (not stated (printed rKv1.4, called mammalian; r read as rat)) (UniProt P15385)
Sequence of rKv1.4 (not stated (printed rKv1.4, called mammalian; r read as rat)) (P15385 whole entry): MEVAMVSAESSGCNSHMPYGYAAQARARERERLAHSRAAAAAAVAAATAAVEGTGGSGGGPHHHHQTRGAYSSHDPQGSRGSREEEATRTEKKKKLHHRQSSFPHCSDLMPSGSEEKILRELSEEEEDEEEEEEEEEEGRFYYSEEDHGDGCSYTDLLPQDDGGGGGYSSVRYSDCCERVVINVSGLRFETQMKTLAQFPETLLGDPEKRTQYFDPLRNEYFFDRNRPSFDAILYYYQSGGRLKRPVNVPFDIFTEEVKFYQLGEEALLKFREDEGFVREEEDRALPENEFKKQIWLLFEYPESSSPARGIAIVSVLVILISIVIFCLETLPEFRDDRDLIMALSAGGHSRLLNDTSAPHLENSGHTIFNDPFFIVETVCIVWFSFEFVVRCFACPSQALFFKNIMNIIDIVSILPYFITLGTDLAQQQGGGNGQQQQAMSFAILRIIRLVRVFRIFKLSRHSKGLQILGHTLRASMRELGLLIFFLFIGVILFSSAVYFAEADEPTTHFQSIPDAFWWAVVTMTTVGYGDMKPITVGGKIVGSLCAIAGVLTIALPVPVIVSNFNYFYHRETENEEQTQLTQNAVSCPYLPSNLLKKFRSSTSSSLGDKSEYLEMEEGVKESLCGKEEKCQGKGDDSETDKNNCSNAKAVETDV

[10] = target: rKv1.1 (not stated (printed rKv1.1, called mammalian; r read as rat)) (UniProt P10499); remark: listed apart in the source

CC[C@H](C)[C@@H]1NC(=O)[C@H](CC(N)=O)NC(=O)[C@H]([C@@H](C)O)NC(=O)CNC(=O)[C@H](CCCNC(=N)N)NC(=O)[C@H](CCCNC(=N)N)NC(=O)[C@H](CCCCN)NC(=O)[C@@H]2CSSC[C@@H]3NC(=O)[C@H](CC(C)C)NC(=O)[C@H](CCCCN)NC(=O)[C@H](CC(C)C)NC(=O)[C@H](Cc4c[nH]cn4)NC(=O)[C@@H]4CCCN4C(=O)[C@H](CC(C)C)NC(=O)[C@@H](NC(=O)[C@H](CC(=O)O)NC(=O)CN)CSSC[C@H](NC(=O)[C@H](CSSC[C@@H](C(=O)N[C@@H](CCCNC(=N)N)C(=O)O)NC(=O)[C@H](CCCNC(=N)N)NC(=O)[C@H](CCCCN)NC(=O)[C@H](CCC(=O)O)NC1=O)NC(=O)[C@H](CC(=O)O)NC(=O)[C@H](CCCCN)NC(=O)[C@H](CC(N)=O)NC(=O)[C@H](CCC(=O)O)NC(=O)[C@H](CCCCN)NC3=O)C(=O)N[C@@H](CO)C(=O)N[C@@H](CCCCN)C(=O)N[C@@H](CCCCN)C(=O)N2 [MCa, reference compound] (H-GDCLPHLKLCKENKDCCSKKCKRRGTNIEKRCR-OH; disulfide 3-17, 10-21, 16-32)
LD50 (mice): 20 μg/mouse
IC50 (rKv1.1; dose-response, each point mean±S.E. (n=3), read-out: IC50, inhibition of rKv1.1 currents): 21.9 ± 1.04 µM

CC[C@H](C)[C@@H]1NC(=O)[C@@H]2CSSC[C@@H]3NC(=O)[C@H](CCCCN)NC(=O)[C@H](CCCCN)NC(=O)[C@H](CC(N)=O)NC(=O)[C@H](CC(C)C)NC(=O)[C@H](CCCNC(=N)N)NC(=O)[C@H](CC(N)=O)NC(=O)[C@@H](NC(=O)CN)CSSC[C@H](NC(=O)[C@H](CSSC[C@@H](C(=O)N[C@@H](CCCNC(=N)N)C(=O)N4CCC[C@H]4C(=O)N[C@@H](CC(=O)O)C(=O)N[C@H](C(=O)NCC(=O)N4CCC[C@H]4C(=O)O)C(C)C)NC(=O)[C@H](Cc4ccc(O)cc4)NC(=O)[C@H](Cc4ccc(O)cc4)NC(=O)[C@H](CC(N)=O)NC(=O)[C@H](C(C)C)NC(=O)CNC(=O)[C@H]([C@@H](C)O)NC(=O)[C@H](CO)NC1=O)NC(=O)[C@H](CC(=O)O)NC(=O)[C@H](C)NC(=O)[C@H](CC(=O)O)NC(=O)[C@H](CO)NC(=O)[C@H](CC(N)=O)NC3=O)C(=O)N[C@@H](CCCNC(=N)N)C(=O)N[C@@H](Cc1ccc(O)cc1)C(=O)NCC(=O)N[C@@H](CCC(=O)O)C(=O)N[C@@H](CCCNC(=N)N)C(=O)N2 [λ-MK1] (H-GCNRLNKKCNSDADCCRYGERCISTGVNYYCRPDVGP-OH; disulfide 2-16, 9-22, 15-31)
reduction of Shaker channel currents ([1]; 10 μM, Xenopus oocytes, 250 ms depolarization to 0 mV from −90 mV, mean±S.E. (n=3)): 44.7±10.2%
IC50 ([1]; dose-response fitted by Hill equation, each point mean±S.E. (n=3), read-out: peptide concentration at half-maximal efficacy (IC50), Shaker channel): 12.3 ± 0.96 µM
chemical stability (non-enzymatic hydrolysis, Val35–Gly36 peptide bond) [2]: instability of a peptide bond between Val^35 and Gly^36 in an alkaline environment

imperatoxin A (GDCLPHLKRCKADNDCCGKKCKRRGTNAEKRCR; UniProt P59868 1-33, looked up)
activation of Ca2+ release channels/ryanodine receptors [3]: activators of sarcoplasmic reticulum Ca^2+ release channels/ryanodine receptors of skeletal and cardiac muscles

jingzhaotoxin-III: tarantula toxin, an Na^+ channel blocker with an ICK fold (DGECGGFWWKCGRGKPPCCKGYACSKTWGWCAVEAP; also: ICK fold, disulfide pairing not given here; UniProt P62520 28-63, looked up)
Na+ channel block (Na^+ channel): Na^+ channel blocker

leiurotoxin I: a scorpion α-KTx (AFCNLRMCQLSCRSLGLLGKCIGDKCECVKH; ends and bridges not checked; cysteine pairing not given here; UniProt P16341 1-31, looked up)
effect of C-terminal amidation on affinity for apamin-sensitive SKCa channels [4]: increase the affinity

λ-MK1a: the amidated peptide of λ-MK1, three disulfide bridges (GCNRLNKKCNSDADCCRYGERCISTGVNYYCRPDFGP-NH2; disulfide (positions not given here))
current reduction of rKv1.4 (rKv1.4): 35.7±4.26%
current reduction of rKv1.3 (rKv1.3): 9.0±3.2%
activity on the Shaker channel after C-terminal modification ([1]; Xenopus oocytes): switched the target of λ-MK1 from the Shaker channel to mammalian Kv channels
activity on the Shaker channel after C-terminal modification ([1]; Xenopus oocytes, listed as C-terminal amidation): loss of activity on the Shaker channel
chemical stability (non-enzymatic hydrolysis, Val35–Gly36 peptide bond) [2]: completely inhibited the non-enzymatic hydrolysis of the peptide
refolding efficiency ([2]; RP-HPLC, relative to λ-MK1): largely improved its refolding efficiency
current reduction of rKv1.2 (rKv1.2): 25.3±3.6%
current reduction of rKv1.1 (rKv1.1; 10 μM, 250 ms depolarization to 0 mV from −90 mV, mean±S.E. (n=3)): 7.7±1.8%

GCNRLNKKCNSDADCCRYGERCISTGVNYYCRPDFGP [λ-MeuKTx-1]
reduction of Shaker channel currents at 10 μM peptide, two-electrode voltage clamp in Xenopus oocytes [5]: 44.7%

B1: λ-MK1a (peptide)
chain: GCNRLNKKCNSDADCCRYGERCISTGVNYYCRPDFGP-NH2
modifications: disulfide (positions not given here); not fully specified (bridges); ends not checked; also: three disulfide bridges, pairing not given here
reduction of rKv1.3 currents at 10 μM peptide, two-electrode voltage clamp in Xenopus oocytes [6]: 9%
reduction of rKv1.1 currents at 10 μM peptide, two-electrode voltage clamp in Xenopus oocytes [7]: 7.7%
reduction of rKv1.2 currents at 10 μM peptide, two-electrode voltage clamp in Xenopus oocytes [8]: 25.3%
reduction of rKv1.4 currents at 10 μM peptide, two-electrode voltage clamp in Xenopus oocytes [9]: 35.7%

GDCLPHLKLCKENKDCCSKKCKRRGTNIEKRCR [maurocalcine]
IC50 of inhibition of rKv1.1 currents, dose-response, two-electrode voltage clamp in Xenopus oocytes [10]: 21.9 µM
